The subject of assay [1] is Gram-positive 1 ATCC 29213, Gram-positive 2 BAA-1026. In words: Standard procedure confirming blinded test (susceptibility, MIC, analysis time). It counts as cell-based. Also on record: key to Standard procedure susceptibility or resistance (second symbol of cell): S: The standard procedure established susceptibility or resistance; R: The standard procedure established susceptibility or resistance. As to the method: (§1) Both Gram-positive strains were correctly classified using 2×(12 μg/mL oxacillin) in <120 min (97±45 min and 103±33 min). The Gram-negative strains were also correctly classified after increasing concentrations of imipenem from 2× to 20×(12 to 120 μg/mL imipenem). […] These phenotypic results were confirmed with results of standard procedure known to those skilled in the art and are included in Table 4 below, wherein READAS(S) susceptibility was defined by an ASIn≥0.4; (R) resistant was defined by an ASIn<0.4; analysis time shown in minutes. The standard procedure established susceptibility or resistance, MIC in μg/mL, and analysis time shown in hours.

The subject of assay [2] is Staphylococcus aureus (strains 29213 and 43300). Particulars: cited from earlier work.
Assay [3] shares this test system. In words: Microdilution antibiotic susceptibility assay (MIC, CLSI guidelines). It counts as cell-based. The conditions noted are these: for MIC: Staphylococcus aureus, MH media, oxacillin: 30° C., 18-24 h, 2% NaCl, read-out: estimated minimum inhibitory concentration from this study. As to the method:
Testing for S. aureus susceptibility to oxacillin differed with incubation at 30° C. for 18-24 h in MH media supplemented with 2% NaCl.
Values listed in Table 2 below include the estimated minimum inhibitory concentration from this study (μg/mL), the determination of(S) sensitive or (R) resistant microbes according to CLSI criteria, and the CLSI guidelines (μg/mL) for the species being tested. Empty cells were not evaluated.

The subject of assay [4] is Gram-positive 1 ATCC 29213, Gram-positive 2 BAA-1026. In words: READAS operator blinded test. It counts as cell-based. Particulars: oxacillin 2× (12 μg/mL); for ASIn: OD600=0.1. As to the method: Tests were conducted for which the species or resistance phenotype was not known beyond the fact that one set was a Gram-positive and the other Gram-negative, and the antibiotics to be tested were oxacillin and imipenem, respectively. The isolates were provided as coded streak plates. Because the species were unknown, the breakpoint concentration of oxacillin and imipenem were estimated from the known breakpoints of the four previously tested strains (as shown in Table 1; 6 μg/mL for oxacillin, S. aureus and 6 μg/mL imipenem for Gram-negative strains). Following the decision methodology for determining antibiotic susceptibility and resistance of READAS, the strains were first tested with 2× the resistance breakpoint concentration (12 μg/mL oxacillin or imipenem) and the ASI2 was measured. This was increased up to 24× the resistance breakpoint concentration. If ASI2≥0.4 then the strain was considered susceptible. […] If neither strain achieved an ASI2≥0.4, 24× the resistance breakpoint concentration was tested and the ASI24 was measured.
As another example method of operation, operator blinded tests were conducted using susceptible and resistant strains of Gram-positive and -negative bacteria. Because the species identification was unknown, […] oxacillin was chosen as the estimated resistance breakpoint for the Gram-positive strain and 6 μg/mL imipenem was initially chosen as the resistance breakpoint for the Gram-negative strain. The stains selected for this example method of operation include Gram-positive 1 ATCC 29213, Gram-positive 2 BAA-1026, Gram-negative 1 AR55 and Gram-negative 2 AR58 with cultures of OD600=0.1, for simplicity.
as §1

Assay [5] deals with Staphylococcus aureus (strains 29213 and 43300). Put plainly: READAS electrochemical current response with PMS mediator (ASIn). It counts as cell-based. The conditions noted are these: for ASIn (antibiotic susceptibility index), single replicates: oxacillin 20× breakpoint (120 μg/mL), ASI20, 30° C., 15 μM PMS, 0.1 OD600. As to the method:
Each measurement was replicated at least four times.
(S. aureus experiments) or 37° C. (all others) MH media.
The current responses measured follows a sigmoidal curve structure.
As a second example method of operation, the S. aureus strains selected from Table 2 were assessed. Initially, a 2×CLSI resistance breakpoint concentrations for two antibiotics oxacillin (12 μg/mL) and tobramycin (32 μg/mL) were used for the example method of operation. The ASI2<0.4 and it was concluded that the concentration of the antibiotics was insufficient to classify the strains as antibiotic-susceptible or -resistant. S. aureus was then treated with 4×, 6×, 8×, 10×, and 20× the breakpoint concentration of oxacillin and was compared to the control as depicted in FIG. 8A. […] S. aureus was also treated with 4× and 10× the breakpoint concentration of tobramycin and was compared to the control depicted in FIG. 8B. […] The efficacy of antibiotic was proportional to the concentration when a high cell density (1.1×10^8 CFU/mL) was used.
The ASIn analysis time for classifying the strains as resistant or susceptible for tobramycin treatment was 33-78 min which was 30 min less than needed for detecting oxacillin susceptibility which required 60-96 min.

For assay [6], the system named is A. baumannii strain 78. Put plainly: Absorbance growth curves on increasing concentration of the electron transfer mediator. The format is cell-based, Acinetobacter baumannii. Particulars: PMS concentrations higher than 15 μM; MH media; FIG. 3B. As to the method:
[…] The wells were inoculated to 0.1 OD600 for a total volume of 200 μL. The plates were continuously mixed by an orbital motion and maintained at 37° C. or 30° C. for S. aureus and oxacillin. Absorbance growth curves were recorded at 600 nm for 24 h and growth curves were presented as the average of three technical replicates with standard deviation.
Error bars represent standard deviation of three replicates. With this PMS concentration of 15 μM, Gram-negative species of bacteria with OD600=0.1 (approximately 10^7 and 10^8 cells per mL; Table 2) consistently had analysis times in less than 90 min, as illustrated by FIG. 3C. The current magnitude is shown to increase with increasing cell density while the response time is seen to be decreased with increasing cell density. Error bars are the standard deviation of four replicates in FIG. 3C. Increasing the cell density also contributed to the “inoculum effect” of antibiotic efficacy resulting in the need for higher concentrations of antibiotics to differentiate sensitive and resistant strains.

≈ marks a conversion by molar mass, not a printed value. Where “and” joins values, the source holds several entries; their conditions need not be identical. Equal values may be shown once. Read-outs that look alike come from different tables or passages of the source. Marks after values point to notes of the source that are not given here.

Regarding `Cc1onc(-c2ccccc2)c1C(=O)N[C@@H]1C(=O)N2[C@@H]1SC(C)(C)[C@@H]2C(=O)O` [Oxacillin, oxacillin], the MIC is 0.5 µg/mL (≈ 1.25 µM) in assay [1] (Gram-positive 1 (ATCC 29213)), at least 4 µg/mL in assay [1] (Gram-positive 2 (BAA-1026)), 0.5 µg/mL (≈ 1.25 µM) in assay [3] (strain 29213) and 32 µg/mL (≈ 79.7 µM) in assay [3] (strain 43300). The “Standard procedure susceptibility or resistance (second symbol of cell)” value in assay [1] (Gram-positive 1 (ATCC 29213)) is “S/S”; in assay [1] (Gram-positive 2 (BAA-1026)) it was “R/R”. In assay [2], the “CLSI guidelines (resistance breakpoint) for the species” value is 6 µg/mL. The results for the “sensitive or resistant according to CLSI criteria” value in assay [3] (strain 29213) and in assay [3] (strain 43300) were “S” and “R”, respectively. Further, the “READAS susceptibility (first symbol of cell)” value in assay [4] (Gram-positive 1 (ATCC 29213)) is listed as “S/S (READAS(S) susceptibility was defined by an ASIn≥0.4)”; in assay [4] (Gram-positive 2 (BAA-1026)), “R/R ((R) resistant was defined by an ASIn<0.4)”. For the same compound, the ASIn in assay [4] (Gram-positive 1 (ATCC 29213)) is given as 0.55 ± 0.14^b; in assay [4] (Gram-positive 2 (BAA-1026)) it was −0.04 ± 0.19^b. The “current response with increasing antibiotic concentration” value in assay [5] (oxacillin 4×, 6×, 8×, 10×, 20× breakpoint (FIG. 8A), tobramycin 4× and 10× (FIG. 8B), […]10^8 CFU/mL) is on record as “decreased with increasing oxacillin concentration except at low doses where no effect or an increase in the current is observed”. Further, the “ASIn (antibiotic susceptibility index), single replicates” value in assay [5] (strain 29213 (susceptible)) was 0.4 and 0.63 and 0.59; in assay [5] (strain 43300 (resistant)), 0.4 and 0.63 and 0.59. For the same compound, the “average ASI20 (±SE)” value in assay [5] (strain 43300 (resistant), oxacillin 20× (120 μg/mL)) is recorded as 0.17±0.13.

On to `COS(=O)(=O)[O-].C[n+]1c2ccccc2nc2ccccc21` [PMS, phenazine methosulfate], for which the “inhibition of bacterial growth by the electron transfer mediator” value in assay [6] is given as “higher concentrations produced variable degrees of inhibition between strains”.

(Values after US20240426776A1, “RAPID DIFFERENTIATION OF ANTIBIOTIC-SUSCEPTIBLE AND -RESISTANT BACTERIA THROUGH MEDIATED EXTRACELLULAR ELECTRON TRANSFER” (priority 2021, published 2024).)
